The target of experiment [1] is T1, 5-HT1B receptor (Homo sapiens, UniProt P28222).
T1 construct: expressed in transfected cells
The experiment in a line: Binding affinity, 3H-serotonin displacement from membranes of cells expressing 5-HT1B. Conditions: 3H-serotonin 2.5 nM; 60 minute incubation at 22° C.; 100 nM test compound given only for 5-HT1D; read-out: percent inhibition at the 5-HT1B receptor. The method, then:
(§1) Selected compounds of the previous examples, as well as reference compounds were evaluated for binding affinity using cell types receptive specifically to 5-HT1D and 5-HT1B ligands. The assay protocol generally entailed the incubation of membranes prepared from cells expressing the 5-HT1D or 5-HT1B subtype of 5-HT receptors with ^3H-serotonin (1 nM for 5-HT1D and 2.5 nM for 5-HT1B). Specific concentrations of the test compound were incubated with the radioligand and the membrane homogenates prepared from the recombinant cells. After a 60 minute incubation at 22° C., the incubation was terminated by vacuum filtration. The filters were washed with buffer and counted for radioactivity using liquid scintillation spectroscopy. The affinity of the test compound for the 5-HT1D receptor is expressed as the amount (in percent) of binding of the radioligand that is inhibited in the presence of 100 nM of test compound. A greater percent inhibition indicates greater affinity for the 5-HT1D receptor.

Experiment [2] addresses T2, 5-HT1D receptor (Homo sapiens, UniProt P28221).
T2 construct: expressed in transfected cells
Briefly: Binding affinity, 3H-serotonin displacement from membranes of cells expressing 5-HT1D. Conditions: 100 nM of test compound; 3H-serotonin 1 nM; 60 minute incubation at 22° C.; read-out: percent inhibition of binding of the radioligand at the 5-HT1D receptor. The method, then:
as §1

Experiment [3] concerns the target T2, 5-HT1D receptor. The experiment in a line: Functional assay, inhibition of forskolin-stimulated adenyl cyclase (cAMP) in CHO Pro 5 cells. It counts as cell-based. Conditions: CHO cells stably expressing the 5-HT1D receptor; concentrations of 100 nM and 10 μM. On the procedure:
The 5HT1D and 5HT1B receptor subtypes respond to serotonin and other agonists by reducing adenyl cyclase mediated production of cyclic AMP. Particular test compounds were assayed for their ability to inhibit adenyl cyclase activity using the procedure described below. Forskolin was used to elevate the basal adenyl cyclase activity.
Compounds acting as antagonists at the 5HT1D and 5HT1B receptor subtypes will antagonize the agonist effect of serotonin and thus, will block the serotonin-induced inhibition of forskolin-stimulated adenyl cyclase activity. […]
The culture media of each well was removed, and the wells were washed once with serum free media. […] Basal adenyl cyclase activity was determined from wells with only SFM+IBMX media added.
The cells were then incubated at 37° C. for 30 minutes in a CO2 incubator. […] The pellets were discarded and the supernatants were stored at 4° C. until assayed for cAMP concentration. cAMP content for each extract was determined in duplicate by EIA (enzyme-immunoassay) using the Amersham Biotrak cAMP EIA kit (Amersham RPN 225).
Total inhibition (Io) of forskolin-stimulated adenyl cyclase activity by serotonin was determined as the difference in concentration of cAMP in the forskolin-treated cells (Cf) and serotonin-forskolin treated cells (Cd). […]

The structures appear in SMILES notation. Bounds are passed on as bounds.

T2 sequence (P28221 whole entry): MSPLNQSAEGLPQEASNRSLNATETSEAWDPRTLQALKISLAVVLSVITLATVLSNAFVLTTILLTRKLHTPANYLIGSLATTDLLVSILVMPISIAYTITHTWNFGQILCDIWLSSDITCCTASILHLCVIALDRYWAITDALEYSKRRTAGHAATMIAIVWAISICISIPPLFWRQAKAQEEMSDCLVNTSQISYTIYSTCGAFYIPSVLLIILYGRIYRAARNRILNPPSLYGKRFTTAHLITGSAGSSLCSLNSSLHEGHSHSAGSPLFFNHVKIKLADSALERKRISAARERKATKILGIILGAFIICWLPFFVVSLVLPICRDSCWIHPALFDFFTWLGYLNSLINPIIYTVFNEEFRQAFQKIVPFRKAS
T1 sequence (P28222 whole entry): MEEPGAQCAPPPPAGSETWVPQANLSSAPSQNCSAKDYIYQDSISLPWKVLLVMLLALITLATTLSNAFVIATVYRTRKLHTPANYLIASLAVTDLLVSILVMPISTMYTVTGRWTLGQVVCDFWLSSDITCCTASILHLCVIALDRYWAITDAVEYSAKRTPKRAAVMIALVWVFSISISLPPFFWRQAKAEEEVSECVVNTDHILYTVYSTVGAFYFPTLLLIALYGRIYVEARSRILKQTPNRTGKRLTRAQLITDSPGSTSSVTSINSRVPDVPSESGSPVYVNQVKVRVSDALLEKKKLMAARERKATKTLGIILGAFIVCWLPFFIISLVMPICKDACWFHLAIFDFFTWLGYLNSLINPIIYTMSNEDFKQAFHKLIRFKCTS

As for `CC1=C(c2c[nH]c3ccc(C(C)C)cc23)CC2CCCN2C1` [Example 6, 5-Isopropyl-3-[(8a,R,S)-6-methyl-1,2,3,5,8,8a-hexahydro-7-indolizinyl]-1H-indole], the inhibition at 0.1 µM in experiment [1] is < 50%; in experiment [2] it was > 75%.

In the case of `COc1ccc2[nH]cc(C3=CCN4CCCC4C3)c2c1` [Example 3b, 5-Methoxy-3-[(8a-R,S)-1,2,3,5,8,8a-hexahydro-7-indolizinyl]-1H-indole], the results for the inhibition at 0.1 µM in experiment [1] and in experiment [2] were < 50% and > 75%, respectively.

Consider `CC(C)c1ccc2[nH]cc(C3CCN4CCCC4C3)c2c1` (single isomer, unassigned) [Example 9c, 5-Isopropyl-3-[(7R or 7S)(8a-R,S)-octahydro-7-indolizinyl]-1H-indole], for which the inhibition at 0.1 µM in experiment [1] is < 50%; in experiment [2] it was > 75%.

As to `C1=C(c2ccc3[nH]cc(C4=CC5CCCN5CC4)c3c2)CCCC1` [Example 8d, 5-(Cyclohexen-1-yl)-3-[(8a-R,S)-1,2,3,5,6,8a-hexahydro-7-indolizinyl]-1H-indole], in experiment [2], the inhibition at 0.1 µM is > 75%.

Regarding `C1=C(c2ccc3[nH]cc(C4=CC5CCCN5CC4)c3c2)CCSC1` [Example 8f, 5-(5,6-Dihydro-2H-thiopyran-4-yl)-3-[(8a-R,S)-1,2,3,5,6,8a-hexahydro-7-indolizinyl]-1H-indole], the inhibition at 0.1 µM in experiment [2] was > 75%.

As to `c1csc(-c2ccc3[nH]cc(C4CCN5CCCC5C4)c3c2)c1` [Example 14c, 3-[(7-R,S)(8a-R,S)-Octahydro-7-indolizinyl]-5-(2-thienyl)-1H-indole], the inhibition at 0.1 µM in experiment [1] is < 50%; in experiment [2], > 75%. In addition, in experiment [3], the “forskolin stimulated production of cAMP (agonist activity)” value is listed as “decrease”.

On to `C1=C(c2c[nH]c3ccc(OC4CCCCC4)cc23)CC2CCCN2C1` [Example 3f, 5-Cyclohexyloxy-3-[(8a-R,S)-1,2,3,5,8,8a-hexahydro-7-indolizinyl]-1H-indole], for which the inhibition at 0.1 µM in experiment [2] is > 75%.

As for `C1=C(c2ccc3[nH]cc(C4=CCN5CCCC5C4)c3c2)CCOC1` [Example 8a, 5-(5,6-Dihydro-2H-pyran-4-yl)-3-[(8a-R,S)-1,2,3,5,8,8a-hexahydro-7-indolizinyl]-1H-indole], in experiment [2], the inhibition at 0.1 µM was > 75%.

`Brc1ccc2[nH]cc(C3=CCN4CCCC4C3)c2c1` [Example 3e, 5-Bromo-3-[(8a-R,S)-1,2,3,5,8,8a-hexahydro-7-indolizinyl]-1H-indole]: the inhibition at 0.1 µM in experiment [2] is > 75%.

With `OC1(c2ccc3[nH]cc(C4=CCN5CCCC5C4)c3c2)CCCCC1` [Example 3h, 1-{[3-(8a-R,S)-1,2,3,5,8,8a-Hexahydro-7-indolizinyl]-1H-indol-5-yl}cyclohexanol], the inhibition at 0.1 µM in experiment [1] was < 50%; in experiment [2], > 75%.

Turning to `C1=C(c2ccc3[nH]cc(C4=CCN5CCCC5C4)c3c2)CCCC1` [Example 8c, 5-(Cyclohexen-1-yl)-3-[(8a-R,S)-1,2,3,5,8,8a-hexahydro-7-indolizinyl]-1H-indole], the inhibition at 0.1 µM in experiment [1] was < 50%; in experiment [2], > 75%.

Consider `OC1(c2ccc3[nH]cc(C4=CCN5CCCC5C4)c3c2)CCOCC1` [Example 7, 4-{[3-(8a-R,S)-1,2,3,5,8,8a-Hexahydro-7-indolizinyl]-1H-indol-5-yl}tetrahydro-2H-pyran-4-ol], for which the inhibition at 0.1 µM in experiment [1] was < 50%; in experiment [2], > 75%.

Turning to `C1=C(c2ccc3[nH]cc(C4=CCN5CCCC5C4)c3c2)CCSC1` [Example 8e, 5-(5,6-Dihydro-2H-thiopyran-4-yl)-3-[(8a-R,S)-1,2,3,5,8,8a-hexahydro-7-indolizinyl]-1H-indole], the values for the inhibition at 0.1 µM in experiment [1] and in experiment [2] were < 50% and > 75%, respectively.

Consider `Cc1ccc2[nH]cc(C3=CCN4CCCC4C3)c2c1` [Example 3c, 5-Methyl-3-[(8a-R,S)-1,2,3,5,8,8a-hexahydro-7-indolizinyl]-1H-indole], for which the inhibition at 0.1 µM was < 50% in experiment [1] and > 75% in experiment [2].

For the molecule `c1cc2[nH]cc(C3CCN4CCCC4C3)c2cc1C1CCOCC1` [Example 9g, 5-(Tetrahydropyran-4-yl)-[(7-R,S)(8a-R,S)-octahydro-7-indolizinyl]-1H-indole], in experiment [2], the inhibition at 0.1 µM is > 75%.

Consider `C1=C(c2ccc3[nH]cc(C4=CC5CCCN5CC4)c3c2)CCOC1` [Example 8b, 5-(5,6-Dihydro-2H-pyran-4-yl)-3-[(8a-R,S)-1,2,3,5,6,8a-hexahydro-7-indolizinyl]-1H-indole], for which the inhibition at 0.1 µM in experiment [2] was > 75%.

As for `C1=C(c2c[nH]c3ccc(-c4cccs4)cc23)CC2CCCN2C1` [Example 3g, 5-(2-Thienyl)-3-[(8a-R,S)-1,2,3,5,8,8a-hexahydro-7-indolizinyl]-1H-indole], in experiment [2], the inhibition at 0.1 µM is > 75%.

With `CC(C)c1ccc2[nH]cc(C3=CCN4CCCC4C3)c2c1` [Example 3d, 5-Isopropyl-3-[(8a-R,S)-1,2,3,5,8,8a-hexahydro-7-indolizinyl]-1H-indole], the figures for the inhibition at 0.1 µM in experiment [1] and in experiment [2] were < 50% and > 75%, respectively. For the same molecule, the “forskolin stimulated production of cAMP (agonist activity)” value in experiment [3] is “decrease”.
